Experimental findings from patent US12059458B2, “Peptides and combination of peptides and scaffolds for use in immunotherapy against renal cell carcinoma (RCC) and other cancers” (Immatics Biotechnologies GmbH, priority 2015, dated 2024) are described below.

For experiment [1], the system named is CD8+ T cells of healthy HLA-A*02 donors. Nature of the experiment: In vitro immunogenicity: T-cell priming with aAPCs loaded with peptide/MHC complexes and anti-CD28 antibody, pMHC multimer readout. It counts as cell-based, human. The note with it: Table 10B. From the text: In order to obtain information regarding the immunogenicity of the TUMAPs of the present invention, the inventors performed investigations using an in vitro T-cell priming assay based on repeated stimulations of CD8+ T cells with artificial antigen presenting cells (aAPCs) loaded with peptide/MHC complexes and anti-CD28 antibody.
In order to perform in vitro stimulations by artificial antigen presenting cells loaded with peptide-MHC complex (pMHC) and anti-CD28 antibody, the inventors first isolated CD8+ T cells from fresh HLA-A*02 leukapheresis products via positive selection using CD8 microbeads (Miltenyi Biotec, Bergisch-Gladbach, Germany) of healthy donors obtained from the University clinics Mannheim, Germany, after informed consent.
PBMCs and isolated CD8+ lymphocytes were incubated in T-cell medium (TCM) until use consisting of RPMI-Glutamax (Invitrogen, Karlsruhe, Germany) supplemented with 10% heat inactivated human AB serum (PAN-Biotech, Aidenbach, Germany), 100 U/ml Penicillin/100 μg/ml Streptomycin (Cambrex, Cologne, Germany), 1 mM sodium pyruvate (CC Pro, Oberdorla, Germany), 20 μg/ml Gentamycin (Cambrex). 2.5 ng/ml IL-7 (PromoCell, Heidelberg, Germany) and 10 U/ml IL-2 (Novartis Pharma, Nümberg, Germany) were also added to the TCM at this step.
Generation of pMHC/anti-CD28 coated beads, T-cell stimulations and readout was performed in a highly defined in vitro system using four different pMHC molecules per stimulation condition and 8 different pMHC molecules per readout condition.
The purified co-stimulatory mouse IgG2a anti human CD28 Ab 9.3 (Jung et al., 1987) was chemically biotinylated using Sulfo-N-hydroxysuccinimidobiotin as recommended by the manufacturer (Perbio, Bonn, Germany). Beads used were 5.6 μm diameter streptavidin coated polystyrene particles (Bangs Laboratories, Illinois, USA).
pMHC used for positive and negative control stimulations were A*0201/MLA-001 (peptide […] (SEQ ID NO. 152) from modified Melan-A/MART-1) and A*0201/DDX5-001 ([…] from DDX5 (SEQ ID NO. 153)), respectively.
800.000 beads/200 μl were coated in 96-well plates in the presence of 4×12.5 ng different biotin-pMHC, washed and 600 ng biotin anti-CD28 were added subsequently in a volume of 200 μl. Stimulations were initiated in 96-well plates by co-incubating […] CD8+ T cells with 2×10^5 washed coated beads in 200 μl TCM supplemented with 5 ng/ml IL-12 (PromoCell) for 3 days at 37° C. Half of the medium was then exchanged by fresh TCM supplemented with 80 U/ml IL-2 and incubating was continued for 4 days at 37° C. This stimulation cycle was performed for a total of three times. For the pMHC multimer readout using 8 different pMHC molecules per condition, a two-dimensional combinatorial coding approach was used as previously described (Andersen et al., 2012) with minor modifications encompassing coupling to 5 different fluorochromes. Finally, multimeric analyses were performed by staining the cells with Live/dead near IR dye (Invitrogen, Karlsruhe, Germany), CD8-FITC antibody clone SK1 (BD, Heidelberg, Germany) and fluorescent pMHC multimers. For analysis, a BD LSRII SORP cytometer equipped with appropriate lasers and filters was used. Peptide specific cells were calculated as percentage of total CD8+ cells. Evaluation of multimeric analysis was done using the FlowJo software (Tree Star, Oregon, USA). In vitro priming of specific multimer+ CD8+ lymphocytes was detected by comparing to negative control stimulations.

Experiment [2] deals with HLA-A*02:01 (Homo sapiens, UniProt P04439, D140Y/D185E/D98H/E176V/E277Q/G131W/G231S/I119V/I121R/I166T/I218V/L300P/L318F/N151K/N90K/P208A/P217A/Q86G/Q94H/R138H/R169H/T345S). The experiment is described as follows: MHC binding assay (UV-ligand exchange, beta2m ELISA, peptide exchange yield). The note with it: binding to HLA-A*02:01 ranged by peptide exchange yield, β2m ELISA. From the text: Candidate peptides for T cell based therapies according to the present invention were further tested for their MHC binding capacity (affinity). The individual peptide-MHC complexes were produced by UV-ligand exchange, where a UV-sensitive peptide is cleaved upon UV-irradiation, and exchanged with the peptide of interest as analyzed. Only peptide candidates that can effectively bind and stabilize the peptide-receptive MHC molecules prevent dissociation of the MHC complexes. To determine the yield of the exchange reaction, an ELISA was performed based on the detection of the light chain (β2m) of stabilized MHC complexes. The assay was performed as generally described in Rodenko et al. (Rodenko et al., 2006).
96 well MAXISorp plates (NUNC) were coated over night with 2 ug/ml streptavidin in PBS at room temperature, washed 4× and blocked for 1 h at 37° C. in 2% BSA containing blocking buffer. Refolded HLA-A*02:01/MLA-001 monomers served as standards, covering the range of 15-500 ng/ml. Peptide-MHC monomers of the UV-exchange reaction were diluted 100 fold in blocking buffer. Samples were incubated for 1 h at 37° C., washed four times, incubated with 2 ug/ml HRP conjugated anti-β2m for 1h at 37° C., washed again and detected with TMB solution that is stopped with […]. Absorption was measured at 450 nm. Candidate peptides that show a high exchange yield (preferably higher than 50%, most preferred higher than 75%) are generally preferred for a generation and production of antibodies or fragments thereof, and/or T cell receptors or fragments thereof, as they show sufficient avidity to the MHC molecules and prevent dissociation of the MHC complexes.

Regarding “15 (ILIKHLVKV; listed as Homo sapiens) [compound 15]”, the “Wells positive [%]” value in experiment [1] is “+ (<20% = +)”. Moreover, in experiment [2], the “Peptide exchange (MHC class I binding score)” value (“Peptide exchange” for short) was “++ (≥20% = ++)”.
The like results for “16 (FMPEELPQL; listed as Homo sapiens) [compound 16]” were, in that order, “+ (<20% = +)” and “++ (≥20% = ++)”.
The like results for “18 (YVLDLAAKV; listed as Homo sapiens) [compound 18]” were, in that order, “++ (20%-49% = ++)” and “+++ (≥50 = +++)”.
The like results for “20 (AVANTTFTV; listed as Homo sapiens) [compound 20]” were, in that order, “+ (<20% = +)” and “++ (≥20% = ++)”.
In the case of “22 (FLSPPLPSV; listed as Homo sapiens) [compound 22]”, in experiment [1], the “Wells positive [%]” value is reported as “++ (20%-49% = ++)”. Further, the “Peptide exchange” value in experiment [2] was “+++ (≥50 = +++)”.
For the substance “29 (ILLDLEQAL; listed as Homo sapiens) [compound 29]”, in experiment [1], the “Wells positive [%]” value is recorded as “+ (<20% = +)”. The “Peptide exchange” value in experiment [2] was “+++ (≥50 = +++)”.
The corresponding values for “34 (ELNNQNFYL; listed as Homo sapiens) [compound 34]” are “++ (20%-49% = ++)” and “+++ (≥50 = +++)”.
On to “36 (SLFGKKYIL; listed as Homo sapiens) [compound 36]”, for which, in experiment [1], the “Wells positive [%]” value was “++ (20%-49% = ++)”. The “Peptide exchange” value in experiment [2] is on record as “++ (≥20% = ++)”.
With “94 (ILHHKVYDL; listed as Homo sapiens) [compound 94]”, the “Wells positive [%]” value in experiment [1] is “++ (20%-49% = ++)”. Besides, the “Peptide exchange” value in experiment [2] is “++ (≥20% = ++)”.
The like results for “95 (KLTDVGIATL; listed as Homo sapiens) [compound 95]” were, in that order, “++++ (> = 70% = ++++)” and “++ (≥20% = ++)”.
The like results for “98 (KIPPVSPSI; listed as Homo sapiens) [compound 98]” were, in that order, “++++ (> = 70% = ++++)” and “++ (≥20% = ++)”.
